SMILES strings stand for the structures.

This assay has as its system MV-4-11 cells. Put plainly: Gene expression microarray analysis (Affymetrix PrimeView) and GSEA. It counts as cell-based, human. Details: RFU PODN (11730768_x_at) / Fold change /veh PODN (11730768_x_at) / RFU LINC00158 (11744669_a_at) / Fold change /veh LINC00158 (11744669_a_at) / RFU DUSP10 (11751237_a_at) / Fold change /veh DUSP10 (11751237_a_at) / RFU ID3 (11757404_x_at) / Fold change /veh ID3 (11757404_x_at) / RFU PLEKHG5 (11737974_s_at) / Fold change /veh PLEKHG5 (11737974_s_at) / RFU LRRC4B (11730491_at) / Fold change /veh LRRC4B (11730491_at) / RFU GIMAP4 (11747438_a_at) / Fold change /veh GIMAP4 (11747438_a_at) / RFU KRT8 (11758183_x_at) / Fold change /veh KRT8 (11758183_x_at) / RFU CNN1 (11734310_a_at) / Fold change /veh CNN1 (11734310_a_at) / RFU VPS37D (11726825_at) / Fold change /veh VPS37D (11726825_at) / RFU C10orf10 (11716522_x_at) / Fold change /veh C10orf10 (11716522_x_at) / RFU KIR2DL2 /// KIR2DL4 /// KIR2DL5A /// KIR2DL5B /// KIR2DS1 /// KIR2DS2 /// KIR2DS3 /// KIR2DS4 /// KIR3DL3 /// KIR3DL3 /// KIR3DS1 (11738374_at) / Fold change /veh KIR2DL2 /// KIR2DL4 /// KIR2DL5A /// KIR2DL5B /// KIR2DS1 /// KIR2DS2 /// KIR2DS3 /// KIR2DS4 /// KIR3DL3 /// KIR3DL3 /// KIR3DS1 (11738374_at) / RFU C1QL1 (11718748_at) / Fold change /veh C1QL1 (11718748_at) / RFU TMPRSS4 (11747572_a_at) / Fold change /veh TMPRSS4 (11747572_a_at) / RFU HAMP (11756126_x_at) / Fold change /veh HAMP (11756126_x_at) / RFU RNFT2 (11725882_a_at) / Fold change /veh RNFT2 (11725882_a_at) / RFU NR4A2 (11747474_a_at) / Fold change /veh NR4A2 (11747474_a_at) / RFU ABCC12 (11746883_a_at) / Fold change /veh ABCC12 (11746883_a_at) / RFU TMEM136 (11760407_x_at) / Fold change /veh TMEM136 (11760407_x_at) / RFU CLDN22 /// WWC2 (11732394_at) / Fold change /veh CLDN22 /// WWC2 (11732394_at) / RFU HLA-DPB1 (11760878_x_at) / Fold change /veh HLA-DPB1 (11760878_x_at) / RFU SPINT1 (11716480_a_at) / Fold change /veh SPINT1 (11716480_a_at) / RFU GAP43 (11754022_s_at) / Fold change /veh GAP43 (11754022_s_at) / RFU A4GNT (11735810_at) / Fold change /veh A4GNT (11735810_at) / RFU PRB3 (11715151_x_at) / Fold change /veh PRB3 (11715151_x_at) / RFU TUBB4B (11761932_at) / Fold change /veh TUBB4B (11761932_at) / RFU CAPN14 (11732068_a_at) / Fold change /veh CAPN14 (11732068_a_at) / RFU TMCC2 (11721928_a_at) / Fold change /veh TMCC2 (11721928_a_at) / RFU IRGQ (11745062_a_at) / Fold change /veh IRGQ (11745062_a_at) / RFU FAM174B (11720279_a_at) / Fold change /veh FAM174B (11720279_a_at) / RFU TMPRSS4 (11748680_a_at) / Fold change /veh TMPRSS4 (11748680_a_at) / RFU FAM212B (11763350_a_at) / Fold change /veh FAM212B (11763350_a_at) / RFU PLEKHG5 (11743358_a_at) / Fold change /veh PLEKHG5 (11743358_a_at) / RFU ZSCAN30 (11745921_a_at) / Fold change /veh ZSCAN30 (11745921_a_at) / RFU CMKLR1 (11741424_a_at) / Fold change /veh CMKLR1 (11741424_a_at) / RFU LOC101060620 /// MAPK8IP1 (11723275_at) / Fold change /veh LOC101060620 /// MAPK8IP1 (11723275_at) / RFU SPTSSB (11747773_x_at) / Fold change /veh SPTSSB (11747773_x_at) / RFU PRSS12 (11739890_at) / Fold change /veh PRSS12 (11739890_at) / RFU BIN1 (11741810_x_at) / Fold change /veh BIN1 (11741810_x_at) / RFU WNT11 (11732464_a_at) / Fold change /veh WNT11 (11732464_a_at) / RFU C10orf10 (11716521_a_at) / Fold change /veh C10orf10 (11716521_a_at) / RFU C5orf56 (11738089_at) / Fold change /veh C5orf56 (11738089_at) / RFU CYB561 (11721691_x_at) / Fold change /veh CYB561 (11721691_x_at) / RFU ANKRD19P (11752326_a_at) / Fold change /veh ANKRD19P (11752326_a_at) / RFU OR2T12 /// OR2T33 /// OR2T8 (11738714_s_at) / Fold change /veh OR2T12 /// OR2T33 /// OR2T8 (11738714_s_at) / RFU VCAN (11748164_a_at) / Fold change /veh VCAN (11748164_a_at) / RFU JSRP1 (11732532_at) / Fold change /veh JSRP1 (11732532_at) / RFU KRTAP10-11 (11738290_x_at) / Fold change /veh KRTAP10-11 (11738290_x_at) / RFU MYO3A (11730013_a_at) / Fold change /veh MYO3A (11730013_a_at) / RFU EBF3 (11725865_a_at) / Fold change /veh EBF3 (11725865_a_at) / RFU CAMK2N1 (11719241_x_at) / Fold change /veh CAMK2N1 (11719241_x_at) / RFU C5orf56 (11738088_a_at) / Fold change /veh C5orf56 (11738088_a_at) / RFU OLFML3 (11715873_a_at) / Fold change /veh OLFML3 (11715873_a_at) / RFU LOC100653217 /// NTM (11731650_a_at) / Fold change /veh LOC100653217 /// NTM (11731650_a_at) / RFU MAPK11 (11762145_a_at) / Fold change /veh MAPK11 (11762145_a_at) / RFU FIZ1 (11724087_x_at) / Fold change /veh FIZ1 (11724087_x_at) / RFU OASL (11726364_x_at) / Fold change /veh OASL (11726364_x_at) / RFU SOX15 (11748057_x_at) / Fold change /veh SOX15 (11748057_x_at) / RFU CD79A (11719716_a_at) / Fold change /veh CD79A (11719716_a_at) / RFU HIST1H1D (11736915_at) / Fold change /veh HIST1H1D (11736915_at) / RFU CASKIN2 (11723855_a_at) / Fold change /veh CASKIN2 (11723855_a_at) / RFU LOC730098 (11760151_x_at) / Fold change /veh LOC730098 (11760151_x_at) / RFU OR4N2 (11742367_at) / Fold change /veh OR4N2 (11742367_at) / RFU PRRT2 (11749266_a_at) / Fold change /veh PRRT2 (11749266_a_at) / RFU SNX32 (11753110_a_at) / Fold change /veh SNX32 (11753110_a_at) / RFU CDHR5 (11726645_a_at) / Fold change /veh CDHR5 (11726645_a_at) / RFU RCAN1 (11760418_a_at) / Fold change /veh RCAN1 (11760418_a_at) / RFU FAM167A (11723789_a_at) / Fold change /veh FAM167A (11723789_a_at) / RFU FAM26E (11764081_at) / Fold change /veh FAM26E (11764081_at) / RFU ISYNA1 (11749810_s_at) / Fold change /veh ISYNA1 (11749810_s_at) / RFU ACY1 (11761880_at) / Fold change /veh ACY1 (11761880_at) / RFU 11764098_at / Fold change /veh 11764098_at / RFU SAMD14 (11745864_x_at) / Fold change /veh SAMD14 (11745864_x_at) / RFU NPB (11741838_a_at) / Fold change /veh NPB (11741838_a_at) / RFU TMPRSS6 (11731388_a_at) / Fold change /veh TMPRSS6 (11731388_a_at) / RFU KRTAP10-2 (11738614_at) / Fold change /veh KRTAP10-2 (11738614_at) / RFU ARHGAP8 /// PRR5-ARHGAP8 (11727945_x_at) / Fold change /veh ARHGAP8 /// PRR5-ARHGAP8 (11727945_x_at) / RFU KRTAP5-7 /// NADSYN1 (11734609_at) / Fold change /veh KRTAP5-7 /// NADSYN1 (11734609_at) / RFU RASL12 (11751679_a_at) / Fold change /veh RASL12 (11751679_a_at) / RFU CDKN2B (11736163_a_at) / Fold change /veh CDKN2B (11736163_a_at) / RFU PRF1 (11729649_at) / Fold change /veh PRF1 (11729649_at) / RFU, ZNF638 /// ZNF638-IT1 / Fold change vs veh, ZNF638 /// ZNF638-IT1 / RFU, PANK3 / Fold change vs veh, PANK3 / RFU, SH3YL1 / Fold change vs veh, SH3YL1 / RFU, ZEB2 / Fold change vs veh, ZEB2 / RFU, NRIP1 / Fold change vs veh, NRIP1 / RFU, PTTG1IP / Fold change vs veh, PTTG1IP / RFU, CAPN2 / Fold change vs veh, CAPN2 / RFU, MED14 / Fold change vs veh, MED14 / RFU, SNORA58 / Fold change vs veh, SNORA58 / RFU, C1orf63 / Fold change vs veh, C1orf63 / RFU, LRRFIP1 / Fold change vs veh, LRRFIP1 / RFU, NDUFAF7 / Fold change vs veh, NDUFAF7 / RFU, SLC12A2 / Fold change vs veh, SLC12A2 / RFU, IBTK / Fold change vs veh, IBTK / RFU, ESF1 / Fold change vs veh, ESF1 / Fold change vs veh, TMEM50B / RFU, TAOK1 / Fold change vs veh, TAOK1 / RFU, ACBD3 / Fold change vs veh, ACBD3 / RFU, TMA16 / Fold change vs veh, TMA16 / RFU, RWDD3 / Fold change vs veh, RWDD3 / RFU, BCAT1 / Fold change vs veh, BCAT1 / RFU, EDEM3 / Fold change vs veh, EDEM3 / RFU, TMEM33 / Fold change vs veh, TMEM33 / RFU, WDR75 / Fold change vs veh, WDR75 / RFU, AHCTF1 / Fold change vs veh, AHCTF1 / RFU, TFRC / Fold change vs veh, TFRC / RFU, ZDHHC17 / Fold change vs veh, ZDHHC17 / RFU, NOM1 / Fold change vs veh, NOM1 / RFU, ARL8B / Fold change vs veh, ARL8B / RFU, ZBTB11 / Fold change vs veh, ZBTB11 / RFU, TAMM41 / Fold change vs veh, TAMM41 / RFU, KIAA1704 /// LOC100996395 / Fold change vs veh, KIAA1704 /// LOC100996395 / RFU, ING1 / Fold change vs veh, ING1 / RFU, TRMT61B / Fold change vs veh, TRMT61B / RFU, FUBP3 / Fold change vs veh, FUBP3 / RFU, TP53 / Fold change vs veh, TP53 / RFU, TNKS2 / Fold change vs veh, TNKS2 / RFU, ZFP14 / Fold change vs veh, ZFP14 / RFU, ACTR2 / Fold change vs veh, ACTR2 / RFU, PPP3R1 / Fold change vs veh, PPP3R1 / RFU, PIK3R1 / Fold change vs veh, PIK3R1 / RFU, HNRNPA1 / Fold change vs veh, HNRNPA1 / RFU, RNF170 / Fold change vs veh, RNF170 / RFU, ZNF28 / Fold change vs veh, ZNF28 / RFU, RNGTT / Fold change vs veh, RNGTT / RFU, OGT / Fold change vs veh, OGT / RFU, BRD1 / Fold change vs veh, BRD1 / RFU, MARS / Fold change vs veh, MARS / RFU, ZNF655 / Fold change vs veh, ZNF655 / RFU, FAHD1 / Fold change vs veh, FAHD1 / RFU, BDP1 / Fold change vs veh, BDP1 / RFU, LRRCC1 / Fold change vs veh, LRRCC1 / RFU, ARID1A / Fold change vs veh, ARID1A / RFU, ZNF146 / Fold change vs veh, ZNF146 / RFU, ZNF330 / Fold change vs veh, ZNF330 / RFU, GPN3 / Fold change vs veh, GPN3 / RFU, C9orf123 / Fold change vs veh, C9orf123 / RFU, N4BP2L2 / Fold change vs veh, N4BP2L2 / RFU, ARFIP1 / Fold change vs veh, ARFIP1 / RFU, FAM179B / Fold change vs veh, FAM179B / RFU, BCL10 / Fold change vs veh, BCL10 / RFU, UHRF1BP1L / Fold change vs veh, UHRF1BP1L / RFU, BET1 / Fold change vs veh, BET1 / RFU, CNOT2 / Fold change vs veh, CNOT2 / RFU, ZNF268 / Fold change vs veh, ZNF268 / Fold change vs veh, ZNF507 / RFU, DGCR2 / Fold change vs veh, DGCR2 / RFU, WDSUB1 / Fold change vs veh, WDSUB1 / Fold change vs veh, HSP90B1 /// MIR3652 / RFU, ADSS / Fold change vs veh, ADSS / RFU, GK / Fold change vs veh, GK / RFU, ZNF148 / Fold change vs veh, ZNF148 / RFU, TAF9 / Fold change vs veh, TAF9 / RFU, SLC1A5 / Fold change vs veh, SLC1A5 / RFU, SLMO2 / Fold change vs veh, SLMO2 / RFU, ABCC4 / Fold change vs veh, ABCC4 / RFU, LOC101060439 /// RAP1B / Fold change vs veh, LOC101060439 /// RAP1B / RFU, RFX7 / Fold change vs veh, RFX7 / RFU, GTPBP10 / Fold change vs veh, GTPBP10 / RFU, CNEP1R1 / Fold change vs veh, CNEP1R1 / RFU, BIVM-ERCC5 /// ERCC5 / Fold change vs veh, BIVM-ERCC5 /// ERCC5 / RFU, ILF3 / Fold change vs veh, ILF3 / RFU 11762660_at / Fold change /veh 11762660_at / RFU VCAN (11757783_s_at) / Fold change /veh VCAN (11757783_s_at) / RFU DDX43 (11728927_at) / Fold change /veh DDX43 (11728927_at) / RFU KRT8 (11758188_x_at) / Fold change /veh KRT8 (11758188_x_at) / RFU NKD1 (11759106_at) / Fold change /veh NKD1 (11759106_at) / RFU SRD5A1 (11742802_a_at) / Fold change /veh SRD5A1 (11742802_a_at) / RFU TPSAB1 /// TPSB2 (11721975_s_at) / Fold change /veh TPSAB1 /// TPSB2 (11721975_s_at) / RFU GSTM3 (11746129_a_at) / Fold change /veh GSTM3 (11746129_a_at) / RFU IL23R (11737362_x_at) / Fold change /veh IL23R (11737362_x_at) / RFU TMEM51 (11727254_a_at) / Fold change /veh TMEM51 (11727254_a_at) / RFU PIWIL2 (11732686_x_at) / Fold change /veh PIWIL2 (11732686_x_at) / RFU ORM1 (11744905_x_at) / Fold change /veh ORM1 (11744905_x_at) / RFU CCDC152 (11743942_at) / Fold change /veh CCDC152 (11743942_at) / RFU ECM1 (11717891_a_at) / Fold change /veh ECM1 (11717891_a_at) / RFU IL23R (11748794_a_at) / Fold change /veh IL23R (11748794_a_at) / RFU TNFAIP8L3 (11732012_x_at) / Fold change /veh TNFAIP8L3 (11732012_x_at) / RFU MBOAT4 (11741988_at) / Fold change /veh MBOAT4 (11741988_at) / RFU 11764193_at / Fold change /veh 11764193_at / RFU TMEM53 (11763286_at) / Fold change /veh TMEM53 (11763286_at) / RFU MAGEB2 (11727129_at) / Fold change /veh MAGEB2 (11727129_at) / RFU TMEM200A (11744735_a_at) / Fold change /veh TMEM200A (11744735_a_at) / RFU CCDC152 (11751479_a_at) / Fold change /veh CCDC152 (11751479_a_at) / RFU FAM211A (11726209_a_at) / Fold change /veh FAM211A (11726209_a_at) / RFU RGS16 (11746705_a_at) / Fold change /veh RGS16 (11746705_a_at) / RFU VCAN (11755009_s_at) / Fold change /veh VCAN (11755009_s_at) / RFU RHOB (11743442_s_at) / Fold change /veh RHOB (11743442_s_at) / RFU RGS16 (11720943_a_at) / Fold change /veh RGS16 (11720943_a_at) / RFU RGS16 (11720944_at) / Fold change /veh RGS16 (11720944_at) / RFU, VPS4B / Fold change vs veh, VPS4B / RFU, CREB1 / Fold change vs veh, CREB1 / RFU, DNAJC13 / Fold change vs veh, DNAJC13 / RFU, GNAQ / Fold change vs veh, GNAQ / RFU, CDK5R1 / Fold change vs veh, CDK5R1 / RFU, ZRANB3 / Fold change vs veh, ZRANB3 / RFU, CUL4A / Fold change vs veh, CUL4A / RFU, CCNY / Fold change vs veh, CCNY / RFU, UFL1 / Fold change vs veh, UFL1 / RFU, COG3 / Fold change vs veh, COG3 / RFU, DIAPH2 / Fold change vs veh, DIAPH2 / RFU, SKA2 / Fold change vs veh, SKA2 / RFU, AFF3 / Fold change vs veh, AFF3 / RFU, LMF1 / Fold change vs veh, LMF1 / RFU, IPO11 / Fold change vs veh, IPO11 / RFU, DFFB / Fold change vs veh, DFFB / RFU, FOXP1 / Fold change vs veh, FOXP1 / RFU, CARD8 / Fold change vs veh, CARD8 / RFU, STRN3 / Fold change vs veh, STRN3 / RFU, ADK / Fold change vs veh, ADK / RFU, RASSF2 / Fold change vs veh, RASSF2 / RFU, WIPF1 / Fold change vs veh, WIPF1 / RFU, LARP1B / Fold change vs veh, LARP1B / RFU, RASA1 / Fold change vs veh, RASA1 / RFU, RB1 / Fold change vs veh, RB1 / RFU, PPFIA1 / Fold change vs veh, PPFIA1 / RFU, MAT2A / Fold change vs veh, MAT2A / RFU, CCT5 / Fold change vs veh, CCT5 / RFU, WDR92 / Fold change vs veh, WDR92 / RFU, CUX1 / Fold change vs veh, CUX1 / RFU, TTC7A / Fold change vs veh, TTC7A / RFU, TMEM135 / Fold change vs veh, TMEM135 / RFU, DEPTOR / Fold change vs veh, DEPTOR / RFU, CPM / Fold change vs veh, CPM / RFU, DNAJB6 / Fold change vs veh, DNAJB6 / RFU, CACNA2D3 / Fold change vs veh, CACNA2D3 / RFU, DTX4 / Fold change vs veh, DTX4 / RFU, TFCP2 / Fold change vs veh, TFCP2 / RFU, GMCL1 /// GMCL1P1 / Fold change vs veh, GMCL1 /// GMCL1P1 / RFU, AEBP2 / Fold change vs veh, AEBP2 / RFU, SNHG1 /// SNORD22 /// SNORD25 /// SNORD26 /// SNORD27 /// SNORD28 /// SNORD29 /// SNORD31 / Fold change vs veh, SNHG1 /// SNORD22 /// SNORD25 /// SNORD26 /// SNORD27 /// SNORD28 /// SNORD29 /// SNORD31 / Fold change (Aza/veh), C12orf56 (ProbeSet 11735607_a_at) / Fold change (ACY-1035/veh), C12orf56 (ProbeSet 11735607_a_at) / Fold change (Aza/veh), FGFR1OP (ProbeSet 11751329_s_at) / Fold change (ACY-1035/veh), FGFR1OP (ProbeSet 11751329_s_at) / Fold change (Aza/veh), VPS36 (ProbeSet 11739960_a_at) / Fold change (ACY-1035/veh), VPS36 (ProbeSet 11739960_a_at) / RFU SYPL1 (11715823_x_at) / Fold change /veh SYPL1 (11715823_x_at) / RFU IGFBP7 (11715501_s_at) / Fold change /veh IGFBP7 (11715501_s_at) / RFU REEP3 (11722064_at) / Fold change /veh REEP3 (11722064_at) / RFU IGLL1 (11728026_x_at) / Fold change /veh IGLL1 (11728026_x_at): dose or concentration left out as unconfirmed. The note with it: ProbeSet 11759095_at; LIST D.

Take `Nc1ccc(-c2cccs2)cc1NC(=O)c1ccc2c(c1)cc(C1CC1)n2CCN1CCOCC1` [ACY-1035]: the “Fold change vs veh, GNAQ” value amounted to 0.95.

Values taken from publication PMC5218480 (PLoS ONE, 2017).
